Laboratory results: PubChem BioAssay (NCI)
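Grown in 96-well plates, cells were treated for 48 hours with each compound at five concentrations. Insufficient inhibition: endpoint recorded as highest concentration tested. TGI: concentration producing complete growth inhibition.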

Key:
Assay in all cases: NCI-60 cell line screen, 48 h
[1] = test system: HL-60(TB) leukemia
[2] = test system: HCC-2998 colon
[3] = test system: COLO 205 colon
[4] = test system: LOX IMVI melanoma
[5] = test system: MDA-N
[6] = test system: SK-MEL-28 melanoma
[7] = test system: SW-620 colon
[8] = test system: IGROV1 ovarian
[9] = test system: HCT-15 colon
[10] = test system: SF-268 CNS
[11] = test system: CCRF-CEM leukemia
[12] = test system: A549 NSCLC
[13] = test system: MOLT-4 leukemia
[14] = test system: DU-145 prostate
[15] = test system: HT29 colon
[16] = test system: K-562 leukemia
[17] = test system: T-47D breast
[18] = test system: CAKI-1 renal
[19] = test system: KM12 colon
[20] = test system: MALME-3M melanoma
[21] = test system: NCI-H23 lung
[22] = test system: RPMI-8226 leukemia
[23] = test system: SF-295 CNS
[24] = test system: TK-10 renal
[25] = test system: SNB-75 CNS
[26] = test system: 786-0 renal
[27] = test system: MCF7 breast
[28] = test system: M14 melanoma
[29] = test system: SK-MEL-5 melanoma
[30] = test system: SN12C renal
[31] = test system: HOP-62 NSCLC
[32] = test system: SK-OV-3 ovarian
[33] = test system: EKVX NSCLC
[34] = test system: PC-3 prostate
[35] = test system: SR leukemia
[36] = test system: UACC-62 melanoma
[37] = test system: UACC-257 melanoma
[38] = test system: OVCAR-8 ovarian
[39] = test system: MDA-MB-435
[40] = test system: HCT-116 colon
[41] = test system: SF-539 CNS
[42] = test system: UO-31 renal
[43] = test system: MDA-MB-231 breast
[44] = test system: ACHN renal
[45] = test system: NCI-H522 lung
[46] = test system: OVCAR-3 ovarian
[47] = test system: SNB-19 CNS
[48] = test system: A498 renal
[49] = test system: NCI-H460 lung
[50] = test system: NCI/ADR-RES ovarian
[51] = test system: U251 CNS
[52] = test system: OVCAR-4 ovarian
[53] = test system: HS 578T breast
[54] = test system: SK-MEL-2 melanoma
[55] = test system: OVCAR-5 ovarian
[56] = test system: NCI-H226 lung
[57] = test system: BT-549 breast

For COc1ccc(C2=C(OC(=O)N(C)C)c3cccn3-c3cc(C(F)(F)F)ccc3S2)cc1, the TGI [1] was > 10 µM, the TGI [2] was > 10 µM and the TGI [3] was > 10 µM. For the same molecule, the TGI [4] was > 10 µM, the TGI [5] was > 10 µM and the TGI [6] was > 10 µM. For the same molecule, the TGI [7] was > 10 µM, the TGI [8] was > 10 µM and the TGI [9] was > 10 µM. The TGI [10] was > 10 µM, the TGI [11] was > 10 µM and the TGI [12] was > 10 µM. For the same molecule, the TGI [13] was > 10 µM, the TGI [14] was > 10 µM and the TGI [15] was > 10 µM. For the same molecule, the TGI [16] was > 10 µM, the TGI [17] was > 10 µM and the TGI [18] was > 10 µM. For the same molecule, the TGI [19] was > 10 µM, the TGI [20] was > 10 µM and the TGI [21] was > 10 µM. The TGI [22] was > 10 µM, the TGI [23] was > 10 µM and the TGI [24] was > 10 µM. The TGI [25] was > 10 µM, the TGI [26] was > 10 µM and the TGI [27] was > 10 µM. The TGI [28] was > 10 µM, the TGI [29] was > 10 µM and the TGI [30] was > 10 µM. For the same molecule, the TGI [31] was > 10 µM, the TGI [32] was > 10 µM and the TGI [33] was > 10 µM. The TGI [34] was > 10 µM, the TGI [35] was > 10 µM and the TGI [36] was > 10 µM. The TGI [37] was > 10 µM and the TGI [38] was > 10 µM.

For COC1C(O)CC(OC2C(C)OC(Oc3cc(O)c4c(O)c5c(cc4c3)C[C@@H]([C@H](OC)C(=O)[C@@H](O)[C@@H](C)O)[C@H](OC3CC(OC4CC(OC6CC(C)(O)C(O)C(C)O6)C(O)C(C)O4)C(O)C(C)O3)C5=O)CC2OC(C)=O)OC1C (some centres not stated), the TGI [1] was > 100 µM, the TGI [39] was > 100 µM and the TGI [2] was > 100 µM. The TGI [3] was > 100 µM, the TGI [40] was > 100 µM and the TGI [4] was > 100 µM. The TGI [5] was > 100 µM, the TGI [41] was > 100 µM and the TGI [6] was > 100 µM. For the same molecule, the TGI [42] was > 100 µM, the TGI [7] was > 100 µM and the TGI [8] was > 100 µM. For the same molecule, the TGI [9] was > 100 µM, the TGI [43] was > 100 µM and the TGI [10] was > 100 µM. The TGI [11] was > 100 µM, the TGI [44] was > 100 µM and the TGI [12] was > 100 µM. The TGI [13] was > 100 µM, the TGI [45] was > 100 µM and the TGI [14] was > 100 µM. For the same molecule, the TGI [15] was > 100 µM, the TGI [46] was > 100 µM and the TGI [47] was > 100 µM. The TGI [16] was > 100 µM, the TGI [17] was > 100 µM and the TGI [48] was > 100 µM. For the same molecule, the TGI [49] was > 100 µM, the TGI [50] was > 100 µM and the TGI [51] was > 100 µM. The TGI [52] was > 100 µM, the TGI [18] was > 100 µM and the TGI [19] was > 100 µM. The TGI [20] was > 100 µM, the TGI [21] was > 100 µM and the TGI [53] was > 100 µM. For the same molecule, the TGI [22] was > 100 µM, the TGI [24] was > 100 µM and the TGI [25] was > 100 µM. For the same molecule, the TGI [26] was > 100 µM, the TGI [54] was > 100 µM and the TGI [27] was > 100 µM. The TGI [29] was > 100 µM, the TGI [30] was > 100 µM and the TGI [55] was > 100 µM. For the same molecule, the TGI [31] was > 100 µM, the TGI [32] was > 100 µM and the TGI [33] was > 100 µM. For the same molecule, the TGI [34] was > 100 µM, the TGI [35] was > 100 µM and the TGI [56] was > 100 µM. The TGI [57] was > 100 µM, the TGI [36] was > 100 µM and the TGI [38] was > 100 µM.
